In US20120015886A1, “METHOD FOR PREPARING RECOMBINANT PEPTIDE FROM SPIDER VENOM AND METHOD FOR RELIEVING PAIN” (priority 2005, published 2012):
Where no end group is shown, it is not given here.

Assays:
[1] = tested on: mice that did not receive carrageenan; assay: Randall-Selitto test, mechanical high-pressure stimuli, no pain inducer; assay type: in vivo; conditions: mice without carrageenan; compared to intraplantar saline and intraperitoneal morphine groups
Procedure: (§1) A cone-shaped rod was placed at one of the hind paws of mice treated with GsMTx4 and force was applied. […] A pain response was characterized as either raising the hind paw, rolling up the tail, or making a shrill sound.
(§2) Two groups of 8 mice each were injected with either physiological saline solution or the pain inducer carrageenan (2% solution, 50 μL, intraplantar) at their hind paws. After the first injection, either GsMTx4 (40 μg/150 g body weight) or for the positive control group, morphine (1.5 mg/150 g) was intraperitoneally injected to these mice. The Randall-Selitto test was carried out 4 hours later. Mechanical stimuli were applied in an area in the paw between the thumb and index finger. Threshold weight data were represented as percentage values against the threshold weight for mice treated saline solution (negative control).

[2] = tested on: stretch-activated channels (SACs); conditions: administered to the hearts of rabbits after atrial fibrillation was induced with high level stress; cited from earlier work
[3] = tested on: carrageenan-treated mice; assay: von Frey test, mechanical allodynia heightened by carrageenan; assay type: in vivo
Source text: Mechanical stimuli were applied in an area in the paw between the thumb and index finger.

[4] = tested on: mice that did not receive carrageenan; assay: von Frey test, mechanical low-pressure stimuli, no pain inducer; assay type: in vivo; conditions: mice without carrageenan; compared to intraplantar saline and intraperitoneal morphine groups
Procedure: The present inventors conducted the von Frey test in order to see whether GsMTx4 of this invention has an analgesic effect against rubbing or other weak mechanical stimuli inside a living body. When a pain inducer is administered only to one of the hind paws of a mouse, the affected paw becomes sensitive and feels pain from even small mechanical stimuli. The von Frey test involves measuring the weight difference at the pain threshold between the two hind paws as one varies the width of the von Frey hair involved in giving the stimuli (http://www.2biol.com/2biol analgesia.htm; Pitcher, G. M. et al., Journal of Neuroscience Methods 87(2):185˜193, 1999).
Two groups of 8 mice each received a 50-μL intraplantar injection of either physiological saline solution or 2% carrageenan at only one of their hind paws. After the first injection, either GsMTx4 (40 μg/150 g body weight) or for the positive control group, morphine (10 mg/150 g) was intraperitoneally injected to these mice. These mice were rubbed with von Frey hairs a half to 4 hours later.
Mechanical stimuli were applied in an area in the paw between the thumb and index finger. Threshold weight data were represented as percentages against the threshold weight for mice treated saline solution (negative control).

[5] = tested on: mice with neuropathic pains; assay: von Frey test under a neuropathic pain model; assay type: in vivo; conditions: tibial and sural nerves cut; 50 μg/200 g body weight; 4 hours after injection; versus saline control
Source text: Neuropathic pain was induced to mice according to the method reported by Lee and others (Lee, B. et al., Neuroreport 11:657˜661, 2000). Mice were put under anesthesia and their skin was excised in the thighs to expose the tibial, sural and common peroneal nerves. Out of these, the tibial and sural nerves were bound together and cut off. Mice were then allowed to recuperate for 6 days after the operation and the monitoring for the presence of neuropathic pain began 1 week after the operation. The analgesic effect of GsMTx4 on those mice suffering from neuropathic pain was tested by the von Frey test as in Example 9.
Mice with neuropathic pains were divided into two groups of 9. To the first group, GsMTx (50 μg/200 g body weight) was injected and to the second group, physiological saline solution for control. 4 hours after the injection of GsMTx4, mechanical stimuli were applied to these mice with von Frey filaments. The width of the von Frey filament that evoked a nociceptic (flexor) reflex was recorded before and after the surgery, and the data was expressed as the percentage of the latter width in relation to the former.

[6] = tested on: carrageenan-treated mice; assay: Weight-bearing test; assay type: in vivo
Procedure: In order to monitor behavioral changes brought by complex mechanical stimuli, the present inventors conducted the weight-bearing test, in which complex mechanical pain is assessed as the stimulus is varied. In detail, one the hind limbs of a mouse was injected with pain inducers such as carrageenan and formalin to incur pain. In such a case, the mouse puts less weight in the injected hind limb, but puts more weight than usual in the other, normal hind limb and this difference in weight is recorded as a measure of pain.
More specifically, the principles behind this test are as follows. When a mouse receives an injection of pain inducers in only one of the hind paws, it puts more weight than usual in the other hind paw. This difference in the weight balance serves as a measure of the mouse's pain. In the present example, such weight difference per unit body weight of the mouse was reported for comparison.
Two groups of 8 mice each received an intraplantar injection of either 2% carrageenan (50 μL) or for the negative control group, physiological saline solution (100 μL) at only one of their hind paws. To the carrageenan-treated mice, either GsMTx4 (40 μg/150 g body weight) or for the positive control group, morphine (10 mg/150 g) was intraperitoneally and their weight balances were monitored 1 to 6 hours later.

[7] = tested on: mice; assay: Tail flick test, temperature stimuli; assay type: in vivo; conditions: no pain inducer; GsMTx4 40 μg/150 g intraperitoneal; compared to morphine 10 mg/150 g; 30 to 4 hours later
Source text: The present inventors looked into GsMTx4 for its possible analgesic activity on pain from temperature stimuli. Mice were irradiated with infrared in their tails and monitored for their endurance against heat (tail flick test). The analgesic effect of GsMTx4 was examined by comparing data from a group of mice suffering from induced pain with those from a non-induced group (Pitcher G. M. et al., Journal of Neuroscience Methods, 87(2):185˜193, 1999).
Three groups of 8 mice each respectively received an intraperitoneal injection of either physiological saline solution (100 μL) as the negative control, or morphine (10 mg/150 g body weight) as the positive control, or GsMTx4 (40 μg/150 g). They were then subject to the tail flick test 30 to 4 hours later.

[8] = tested on: cell swelling; conditions: Sachs et al., J. Gen. Physiol. 2000; cited from earlier work
[9] = tested on: carrageenan-treated mice; assay: Randall-Selitto test, mechanical hyperalgesia heightened by carrageenan; assay type: in vivo
Procedure: In order to probe mechanical hyperalgesia in mice, the present inventors conducted the Randall-Selitto test, in which severe mechanical stress is applied to inflict pain. In detail, force is applied to a sharp-ended rod in touch with a hind paw of a mouse. As a measure of pain sensitivity, the weight of the rod at the pain threshold is recorded.
as §1, §2

[10] = carrageenan-treated mice, GsMTx4 40 μg/150 g intraperitoneal

In the case of “GsMTx4: Spider toxin peptide of 34 amino acids (SEQ. ID NO 1), 3 disulfide bonds, mechanosensitive ion channel inhibitor; produced recombinantly in Pichia pastoris (GCLEFWWKCNPNDDKCCRPKLKCSKLFKLCNFSF; disulfide (positions not given here); not fully specified (bridges); ends not checked; listed as Grammostola spatulata)”, the “analgesic effect against mechanical high pressure” value [1] is given as “evident”, the “effect on atrial fibrillation” value [2] is given as “relieve symptoms of atrial fibrillation” and the “hypersensitivity (pain threshold for hair force)” value ([3]; 2% carrageenan 50 μL intraplantar, intraperitoneal GsMTx4 40 μg/150 g or morphine 10 mg/150 g, a half to 4 hours later) is given as “reduce hypersensitivity”. For the same molecule, the “analgesic effect against mechanical low pressure” value [4] was “observed, albeit weakly”, the “reflex threshold against mechanical stimuli (von Frey filaments)” value [5] was “elevation of the reflex threshold” and the “weight difference between hind limbs” value ([6]; 2% carrageenan 50 μL intraplantar, GsMTx4 40 μg/150 g or morphine 10 mg/150 g intraperitoneally, 1 to 6 hours later) was “reverted back to a low value”. The “analgesic activity against temperature stimuli” value [7] was “either negligible or no analgesic activity”, the “effect on cell swelling associated with congestive heart failure” value [8] was “prevent cell swelling” and the pain sensitivity threshold ([9]; 2% carrageenan 50 μL intraplantar, intraperitoneal GsMTx4 40 μg/150 g body weight or morphine 1.5 mg/150 g) was “increased back substantially”. For the same molecule, the “time after injection at which the analgesic effect occurred” value [9, 10] was 30 min and the “time the analgesic effect lasted” value [9, 10] was “approximately 4 hours”.
With `CN1CC[C@]23c4c5ccc(O)c4O[C@H]2[C@@H](O)C=C[C@H]3[C@H]1C5` [morphine, reference compound] the “hypersensitivity (pain threshold for hair force)” value ([3]; mouse, in vivo, ip) was “reduce hypersensitivity”, the “weight difference between hind limbs” value ([6]; mouse, in vivo, ip) was “reverted back to a low value” and the pain sensitivity threshold ([9]; mouse, in vivo, ip) was “increased back substantially”.
